# Assay results: paper PMC8899516, “Structure-Activity Relationship Studies of 4-((4-(2-fluorophenyl)piperazin-1-yl)methyl)-6-imino-N-(naphthalen-2-yl)-1,3,5-triazin-2-amine (FPMINT) Analogues as Inhibitors of Human Equilibrative Nucleoside Transporters” (Frontiers in Pharmacology, 2022)
# Key:
# [1] = biological target: T1, ENT1 (Homo sapiens, UniProt Q99808); assay: Kinetic study of [3H]uridine uptake in PK15NTD/ENT1 cells; format: cell-based
# T1 construct: expressed in transfected cells
# T1 sequence (Q99808 1-456): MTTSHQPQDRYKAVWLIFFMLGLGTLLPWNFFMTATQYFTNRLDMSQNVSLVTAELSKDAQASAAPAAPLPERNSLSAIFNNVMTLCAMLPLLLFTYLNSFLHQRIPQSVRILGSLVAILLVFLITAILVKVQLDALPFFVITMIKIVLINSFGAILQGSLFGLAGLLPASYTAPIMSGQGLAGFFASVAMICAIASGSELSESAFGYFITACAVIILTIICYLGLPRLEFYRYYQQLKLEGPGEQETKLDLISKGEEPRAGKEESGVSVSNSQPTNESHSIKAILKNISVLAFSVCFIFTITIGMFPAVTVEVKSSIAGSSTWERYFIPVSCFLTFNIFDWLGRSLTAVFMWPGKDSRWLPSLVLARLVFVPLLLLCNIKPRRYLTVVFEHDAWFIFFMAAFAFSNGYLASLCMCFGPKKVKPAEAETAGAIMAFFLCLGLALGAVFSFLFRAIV
# Method: (§1) Nucleoside transporter-deficient porcine kidney fibroblast cells (PK15NTD) stably transfected with cloned human ENT1 or ENT2 ([Ward et al., 2000]) were used as the in vitro models. The cells were cultured in Dulbecco’s Modified Eagle’s Medium (DMEM) supplemented with 10% (v/v) foetal bovine serum, 0.5 mg/ml geneticin, 100 units/ml penicillin, 100 μg/ml streptomycin and 0.25 μg/ml of amphotericin B at 37°C in 5% CO2/95% air.
# (§2) Confluent monolayers of PK15NTD/ENT1 and PK15NTD/ENT2 cells in 24-well plates were washed thrice with HEPES-buffered Ringer’s solution containing (mM): 135 NaCl, 10 glucose, 5 KCl, 5 HEPES, 3.33 NaH2PO4, 1.0 CaCl2, 1.0 MgCl2, 0.83 Na2HPO4; pH 7.4. The cells were incubated with different concentrations of FPMINT analogues (from 10 nM to 100 μM) containing [^3H]uridine (2 μCi/ml, 1 μM) for 1 min. Passive uridine uptake was determined by incubating the cells in HEPES-buffered Ringer’s solution containing [^3H]uridine in the presence of 0.5 mM NBMPR. The cells were rapidly washed five times with ice-cold phosphate-buffered saline (PBS). After air-drying, the cells were solubilised by overnight incubation in 500 μl of 5% Triton-X100. Next, 300 μl of the cell lysates were mixed with 2 ml of scintillation liquid. The radioactivity of each sample was quantified by a scintillation counter. The protein content in each well was determined spectrophotometrically using a commercial bicinchoninic acid assay (Pierce Biochemicals, Rockford, IL). Uptake values were expressed as picomoles of [^3H]uridine per milligram of cellular protein per minute.
# (§3) All data were analysed by GraphPad Prism software (San Diego, CA, United States). Data are expressed as mean ± standard error (SE) of three experiments performed in triplicate. The IC50 values were determined from the dose-response curves fitted with a logistic function. For the kinetic study of [^3H]uridine uptake, apparent K m and V max values were determined from the Michaelis-Menten equation, and K i was determined from the X-intercept of linear regression. Analysis of variance and Student’s t-test were performed for multiple and paired variables, respectively. p values of <0.05 were considered to be statistically significant.
# Compound 3c was selected for further investigation. The kinetic study of [^3H]uridine transport was performed by measuring the concentration-dependent uptake of [^3H]uridine. This study could provide clue about the mode of action of compound 3c. The uptake of [^3H]uridine by ENT1 and ENT2 was saturable and conformed to Michaelis-Menten kinetics. Compound 3c decreased the V max of ENT1 but had no effect on K m . […] The slopes of the linear 1/V versus 1/[S] plots increased with the concentration of compound 3c (Figure 4B).
# FIGURE 4 Competitive inhibition of ENT1 and ENT2 by compound 3c. Kinetic study of [^3H]uridine uptake (0.1 μM–1 mM) was measured in (A) PK15NTD/ENT1 and (D) PK15NTD/ENT2 cells in the presence of various concentrations of compound 3c (0, 0.01, 0.1, 1 and 10 µM) (B,E) 1/V versus 1/[S] plots of each curve in (A) and (D), respectively (C,F) The plot of slopes of each line in (B) and (E), respectively, versus the concentration of compound 3c. Data are presented as mean ± SE of three experiments.
# [2] = biological target: T2, ENT2 (Homo sapiens, UniProt Q14542); assay: [3H]uridine uptake in PK15NTD/ENT2 cells; format: cell-based; conditions: [3H]uridine 1 μM, 1 min, PK15NTD/ENT2 cells; read-out: IC50 against ENT2
# T2 construct: expressed in transfected cells
# T2 sequence (Q14542 1-456): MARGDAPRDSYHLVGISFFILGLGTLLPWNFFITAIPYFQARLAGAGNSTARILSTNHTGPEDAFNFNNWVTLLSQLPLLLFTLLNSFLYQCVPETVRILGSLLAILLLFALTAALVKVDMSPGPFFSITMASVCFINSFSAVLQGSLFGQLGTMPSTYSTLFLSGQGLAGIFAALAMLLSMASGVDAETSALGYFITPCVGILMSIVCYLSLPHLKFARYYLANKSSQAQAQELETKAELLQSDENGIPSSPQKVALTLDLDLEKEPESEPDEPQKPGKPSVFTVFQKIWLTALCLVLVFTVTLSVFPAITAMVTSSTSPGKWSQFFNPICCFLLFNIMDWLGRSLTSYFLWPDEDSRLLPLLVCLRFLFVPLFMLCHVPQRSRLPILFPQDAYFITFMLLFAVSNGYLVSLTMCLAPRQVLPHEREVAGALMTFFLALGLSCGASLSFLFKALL
# Method: as §1
# as §2, with “The” for “Confluent monolayers of PK15NTD/ENT1 and PK15NTD/ENT2 cells in 24-well plates were washed thrice with HEPES-buffered Ringer’s solution containing (mM): 135 NaCl, 10 glucose, 5 KCl, 5 HEPES, 3.33 NaH2PO4, 1.0 CaCl2, 1.0 MgCl2, 0.83 Na2HPO4; pH 7.4. The”
# as §3
smiles,measurement,setting,value
Cc1cccc(Nc2nc(N)nc(CN3CCN(c4ccc(F)cc4)CC3)n2)c1 [Compound 3c],apparent Vmax of ENT1,[1]; 0.01 µM compound 3c,2083 ± 36.80 pmol/mg protein/min
same,apparent Vmax of ENT1,[1]; 0.1 µM compound 3c,1867 ± 27.63 pmol/mg protein/min
same,apparent Vmax of ENT1,[1]; 1 µM compound 3c,1377 ± 37.81 pmol/mg protein/min
same,apparent Vmax of ENT1,[1]; 10 µM compound 3c,732.9 ± 12.02 pmol/mg protein/min
same,mode of inhibition of ENT1-mediated uridine transport,"[1]; decreased Vmax, apparent Km unchanged",non-competitive inhibitor
same,Ki,[1]; x-intercept of slopes versus concentration plot,2790 nM
same,IC50,[2],570 nM
